Results from patent US9346815B2, “5-chloro-2-difluoromethoxyphenyl pyrazolopyrimidine compounds, compositions and methods of use thereof” (Genentech, Inc., priority 2014, dated 2016).

Assays:
[1] = target: isolated recombinant JAK1 kinase domain (Homo sapiens (Human), UniProt P23458); assay: JAK1 enzyme assay (Caliper LabChip, peptide phosphorylation); assay type: biochemical; settings: isolated recombinant JAK1 kinase domain, 25 μM ATP
[2] = target: isolated recombinant JAK2 kinase domain (Homo sapiens (Human), UniProt O60674); assay: JAK2 enzyme assay (Caliper LabChip, peptide phosphorylation); assay type: biochemical; settings: 25 μM ATP
[3] = system: JAK1-dependent STAT6 phosphorylation downstream of IL-13 stimulation in TF-1 human erythroleukemia cells; assay: JAK1 pathway assay in TF-1 cells (IL-13-pSTAT6, MSD); assay type: cell-based; settings: Homo sapiens, TF-1, TF-1 cells, read-out: IL13-pSTAT6 EC50_TF-1
In short: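 TF-1 cells starved of GM-CSF overnight, assayed serum-free; BEAS-2B cells in complete growth medium. Lysate pSTAT6 measured by MSD; EC50 derived.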

Sequence of isolated recombinant JAK2 kinase domain (O60674 849-1124): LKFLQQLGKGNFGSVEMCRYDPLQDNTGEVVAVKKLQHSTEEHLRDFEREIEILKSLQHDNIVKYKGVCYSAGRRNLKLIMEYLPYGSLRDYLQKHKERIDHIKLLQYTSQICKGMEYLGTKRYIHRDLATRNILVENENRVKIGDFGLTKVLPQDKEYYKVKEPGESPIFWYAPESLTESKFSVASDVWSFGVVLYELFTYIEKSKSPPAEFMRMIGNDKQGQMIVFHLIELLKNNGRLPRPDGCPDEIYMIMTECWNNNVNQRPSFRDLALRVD
Sequence of isolated recombinant JAK1 kinase domain (P23458 875-1153): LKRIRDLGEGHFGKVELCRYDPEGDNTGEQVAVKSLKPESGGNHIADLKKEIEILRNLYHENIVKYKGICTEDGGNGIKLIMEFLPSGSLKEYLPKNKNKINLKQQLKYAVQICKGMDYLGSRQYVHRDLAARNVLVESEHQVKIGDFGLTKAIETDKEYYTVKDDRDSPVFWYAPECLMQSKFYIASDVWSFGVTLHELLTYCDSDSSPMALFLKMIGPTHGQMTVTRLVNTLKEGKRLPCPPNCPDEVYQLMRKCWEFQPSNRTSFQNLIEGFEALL

Ki [1] [nM]	Ki [2] [nM]	EC50 [3] [nM]	SMILES
0.91	1.93	30.6	CN1CCC2(CCN(C(=O)Cn3cc(NC(=O)c4cnn5cccnc45)c(-c4cc(Cl)ccc4OC(F)F)n3)C2)C1 (stereo not drawn) [Example 212, N-[3-[5-chloro-2-(difluoromethoxy)phenyl]-1-[2-(7-methyl-2,7-diazaspiro[4.4]nonan-2-yl)-2-oxo-ethyl]pyrazol-4-yl]pyrazolo[1,5-a]pyrimidine-3-carboxamide]
1.13	1.82	12.5	CN1CCC2(CC1)CN(C(=O)Cn1cc(NC(=O)c3cnn4cccnc34)c(-c3cc(Cl)ccc3OC(F)F)n1)C2 [Example 216, N-[3-[5-chloro-2-(difluoromethoxy)phenyl]-1-[2-(7-methyl-2,7-diazaspiro[3.5]nonan-2-yl)-2-oxo-ethyl]pyrazol-4-yl]pyrazolo[1,5-a]pyrimidine-3-carboxamide]
1.22	2.71	1170	O=C(Nc1cn(CC(=O)N2CC3(CCNC3)C2)nc1-c1cc(Cl)ccc1OC(F)F)c1cnn2cccnc12 [Example 220, N-[3-[5-chloro-2-(difluoromethoxy)phenyl]-1-[2-(2,7-diazaspiro[3.4]octan-2-yl)-2-oxo-ethyl]pyrazol-4-yl]pyrazolo[1,5-a]pyrimidine-3-carboxamide]
0.54	1.59	28.9	CN1CCC2(CC1)CCN(C(=O)Cn1cc(NC(=O)c3cnn4cccnc34)c(-c3cc(Cl)ccc3OC(F)F)n1)C2 [Example 222, N-[3-[5-chloro-2-(difluoromethoxy)phenyl]-1-[2-(8-methyl-2,8-diazaspiro[4.5]decan-2-yl)-2-oxo-ethyl]pyrazol-4-yl]pyrazolo[1,5-a]pyrimidine-3-carboxamide]
0.44	0.72	187	O=C(Nc1cn(CC(=O)N2CCC3(CCNC3)CC2)nc1-c1cc(Cl)ccc1OC(F)F)c1cnn2cccnc12 [Example 223, N-[3-[5-chloro-2-(difluoromethoxy)phenyl]-1-[2-(2,8-diazaspiro[4.5]decan-8-yl)-2-oxo-ethyl]pyrazol-4-yl]pyrazolo[1,5-a]pyrimidine-3-carboxamide]
0.56	1.47	19.3	CN1CCC2(CCN(C(=O)Cn3cc(NC(=O)c4cnn5cccnc45)c(-c4cc(Cl)ccc4OC(F)F)n3)CC2)C1 [Example 224, N-[3-[5-chloro-2-(difluoromethoxy)phenyl]-1-[2-(2-methyl-2,8-diazaspiro[4.5]decan-8-yl)-2-oxo-ethyl]pyrazol-4-yl]pyrazolo[1,5-a]pyrimidine-3-carboxamide]
0.41	1.11	41.5	O=C(Nc1cn(CC(=O)N2CCC3(CCN(CC4CCN(C(=O)OCc5ccccc5)CC4)C3)CC2)nc1-c1cc(Cl)ccc1OC(F)F)c1cnn2cccnc12 [Example 226, benzyl 4-[[8-[2-[3-[5-chloro-2-(difluoromethoxy)phenyl]-4-(pyrazolo[1,5-a]pyrimidine-3-carbonylamino)pyrazol-1-yl]acetyl]-2,8-diazaspiro[4.5]decan-2-yl]methyl]piperidine-1-carboxylate]
1.55	2.38	8.6	CN1CCCN(C(=O)Cn2cc(NC(=O)c3cnn4cccnc34)c(-c3cc(Cl)ccc3OC(F)F)n2)CC1 [Example 239, N-[3-[5-chloro-2-(difluoromethoxy)phenyl]-1-[2-(4-methyl-1,4-diazepan-1-yl)-2-oxo-ethyl]pyrazol-4-yl]pyrazolo[1,5-a]pyrimidine-3-carboxamide]
1.08	0.57	48.8	CN1CCCN(C(=O)Cn2cc(NC(=O)c3c(N)nn4cccnc34)c(-c3cc(Cl)ccc3OC(F)F)n2)CC1 [Example 246, 2-amino-N-[3-[5-chloro-2-(difluoromethoxy)phenyl]-1-[2-(4-methyl-1,4-diazepan-1-yl)-2-oxo-ethyl]pyrazol-4-yl]pyrazolo[1,5-a]pyrimidine-3-carboxamide]
